This is an account of results in patent publication US9765063B2, “Amido compounds as RORγt modulators and uses thereof” (New York University, priority 2011, dated 2017).

SMILES strings stand for the structures. Where two headings read alike, the source gives them in different places. Some results are limits rather than exact numbers.

The IC50 is the midpoint of a concentration-inhibition curve. In general, half-life refers to the time needed for the level to fall by half in the phase considered. Read a high half-life as slow decline.

One data set addresses T1, RORγt (Mus musculus, UniProt P51450).
T1 construct: expressed in transfected cells; the other entry of the earlier key: GAL4 (P04386, Regulatory protein GAL4)
Briefly: RORγt S2 cell reporter assay (Gal4-RORγt fusion, UAS-luciferase). Format: cell-based. As to conditions: for IC50: Drosophila S2 cells, luciferase reporter, read-out: IC50; for Emax: % of the maximal response of control inhibitor (Digoxin), set at 100%, read-out: Efficacy (%). The text has this:
Methods: The Drosophila S2 cell line was originally purchased from Invitrogen and was maintained in Schneider's medium supplemented with 10% heat-inactivated bovine fetal calf serum and antibiotics (Invitrogen). […] The resulting chimeric gene was subcloned into the copper inducible pMT/V5-His A vector (available from Invitrogen).
Renilla luciferase construct under the polIII promoter was obtained from Dr. Dasgupta's laboratory (NYU medical center). In order to generate stable cell lines, cells were co-transfected with pMT-G4DBD-RORγt, pMT-G4DBD-RORα, pMT-G4DBD-DHR3, or pMT-G4DBDVP16 and pHygro plasmids (Invitrogen) and screened for resistant colonies in the presence of hygromycin (0.3 mg/mL). […] Using similar methods, stable clones with genomic integration of the luciferase reporters and other reporters were generated such as pMT-RORα_luc, pMT-DHR3_luc, or pMT-VP16_luc.
Methods: 600 G4DBD-RORγ/γt-luc reporter (#25) or G4DBD-VP16-luc reporter cells were distributed into each well of 1,536-well white bottom plates in 4 μl S2 cell culture volume containing hygromicin (300 μg/ml) and puromycin (2 μg/ml). […] After one-hour incubation, 1 of culture medium solution containing copper sulfate (to final 0.7 mM) and 10 μM RORγ/γt antagonists were added to each well. After 20-hour incubation at ambient temperature, 1.5 μl firefly luciferase detection mix was added and the luciferase activities were measured in 10 min. ViewLux luminometers were used for measuring luciferase signal.
A cell-based reporter assay was used to detect RORγt-mediated activity. This assay, called RORγt employed Drosophila Schneider cells that were stably transfected with two vectors: a gene expressing a fusion of the Gal4 DNA binding domain and RORγt transactivation domain under the control of the metallothionine promoter and a Photinus luciferase reporter regulated by the Gal4 binding site enhancer, UAS. […] Cells (600/well) were dispensed into white solid 1536-well plates (Greiner) using a solenoid-based dispenser. Following transfer of […] compound or DMSO vehicle by a pin tool, the plates were incubated 1 hr at ambient temperature, and 1 uL/well copper sulfate (700 uM final concentration) was added. The plates were centrifuged 15 s at 1000 RPM and incubated 20 hr at ambient temperature. After addition of 1.5 uL Photinus luciferase detection reagent, the plates were incubated 10 min at ambient temperature and then read by a ViewLux (Perkin Elmer) to detect luminescence. […] Efficacy is expressed as % of the maximal response of control inhibitor (Digoxin), set at 100%.
Background: A reporter such as luciferase makes a cellular process visible.

Data set [1] can be described thus: Half-life in Human Liver Microsomes (HLM). As to conditions: for % Remaining @ 60 min / half-life at 1 μM / microsomal CLint at 1 μM: 1 μM compound, 0.78 mg/mL HLM, 37° C.; for half-life at 1 μM / microsomal CLint at 1 μM: human, human liver microsomes, pH 7.4; for half-life at 1 μM: Half-life=ln 2/k; for microsomal CLint at 1 μM: read-out: CLint (uM/Min/mg proteins). Format: in vitro ADME. As to the method:
Test compounds (1 μM) are incubated with 3.3 mM MgCl2 and 0.78 mg/mL HLM (HL101) in 100 mM potassium phosphate buffer (pH 7.4) at 37° C. on the 96-deep well plate. The reaction mixture is split into two groups, a non-P450 and a P450 group. NADPH is only added to the reaction mixture of the P450 group. An aliquot of samples of the P450 group is collected at 0, 10, 30, and 60 min time points, where the 0 min time point indicated the lime at which NADPH is added into the reaction mixture of the P450 group. […] Collected aliquots are extracted with acetonitrile solution containing an internal standard. […] The compound concentration in supernatant is measured by LC/MS/MS system.
The half-life value is obtained by plotting the natural logarithm of the peak area ratio of compounds/internal standard versus time. The slope of the line of best fit through the points yields the rate of metabolism (k). This is converted to a half-life value using following equations: Half-life=ln 2/k
(In general: Microsomes from liver hold many membrane-bound enzymes, among them those of drug oxidation.)

T1 sequence (P51450 with tags, fused parts or gaps): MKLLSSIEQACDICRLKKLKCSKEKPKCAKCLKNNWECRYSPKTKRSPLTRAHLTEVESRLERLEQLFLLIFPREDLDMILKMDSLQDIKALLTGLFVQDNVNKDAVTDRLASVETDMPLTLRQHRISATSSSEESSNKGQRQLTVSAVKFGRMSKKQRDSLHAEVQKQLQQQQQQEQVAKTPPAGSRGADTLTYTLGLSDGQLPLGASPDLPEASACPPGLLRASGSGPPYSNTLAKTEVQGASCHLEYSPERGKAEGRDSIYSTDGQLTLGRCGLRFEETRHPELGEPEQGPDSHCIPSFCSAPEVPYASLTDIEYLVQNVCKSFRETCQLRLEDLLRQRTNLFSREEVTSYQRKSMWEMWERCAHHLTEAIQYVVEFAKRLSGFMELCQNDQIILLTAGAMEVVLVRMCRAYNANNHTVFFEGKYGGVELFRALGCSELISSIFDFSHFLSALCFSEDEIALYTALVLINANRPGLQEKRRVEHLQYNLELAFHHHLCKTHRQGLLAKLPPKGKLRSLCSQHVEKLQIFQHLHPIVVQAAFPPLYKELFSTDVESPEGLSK

`CC1CC(C)CN(C(=O)CC(c2ccc3c(c2)OCO3)c2c(O)ccc3cccnc23)C1` (stereo not drawn) [Compound 146]: the IC50 at RORγt (Table 1) lay in the range of 1 to 10 µM.

For the compound `COc1cc(O)c(C(CC(=O)N2CC(C)CC(C)C2)c2cccc(S(C)(=O)=O)c2)c(OC)c1` (stereo not drawn) [Compound 83, 1-(3,5-Dimethylpiperidin-1-yl)-3-(2-hydroxy-4,6-dimethoxyphenyl)-3-(3-(methylsulfonyl)phenyl)propan-1-one], on RORγt (Table 1), the Emax amounted to 93.8% and the concentration for half-maximal inhibition (IC50) fell in the range of 1 to 10 µM.

With `COc1cc(O)c(C(CC(=O)N2CC(C)CC(C)C2)c2cccs2)c(OC)c1` (stereo not drawn) [Compound 107, 1-(3,5-Dimethylpiperidin-1-yl)-3-(2-hydroxy-4,6-dimethoxyphenyl)-3-(thiophen-2-yl)propan-1-one], on RORγt (Table 1), the Emax turned out to be 94.9% and the IC50 was in the range of 1 to 10 µM.

For the compound `COc1cc(OC)c(C(CC(=O)N2C[C@H](C)C[C@H](C)C2)c2ccc(C(=O)O)cc2)c(OC)c1` (stereo partly drawn) [Compound 201, 4-(3-(3,5-cis-Dimethylpiperidin-1-yl)-3-oxo-1-(2,4,6-trimethoxyphenyl)-propyl)benzoic acid], at RORγt (Table 1), the Emax stood at 87% and the IC50 was below 1 µM.

Consider `COc1cc(O)c(C(CC(=O)N2CC(C)CC(C)C2)c2ccc(C(=O)NC3CC3)cc2)c(OC)c1` (stereo not drawn) [Compound 95], for which, on RORγt (Table 1), the IC50 fell in the range of 1 to 10 µM.

As for `COc1cc(O)c(C(CC(=O)N2C[C@H](C)C[C@H](C)C2)c2cnccn2)c(OC)c1` (stereo partly drawn) [Compound 204, 1-(3,5-Dimethylpiperidin-1-yl)-3-(4,6-dimethoxy-2-hydroxy-phenyl)-3-(pyrazin-2-yl)propan-1-one], the IC50 at RORγt (Table 1A) was 1 to 10 µM.

With `COc1cc(O)c(C(CC(=O)N2C[C@H](C)C[C@H](C)C2)c2ccc(OC)nc2)c(OC)c1` (stereo partly drawn) [Compound 206, 1-(3,5-Dimethylpiperidin-1-yl)-3-(4,6-dimethoxy-2-hydroxy-phenyl)-3-(2-methoxypyrid-5-yl)propan-1-one], the IC50 on RORγt (Table 1A) was below 1 µM.

For `COc1cc(O)c(C(CC(=O)N2CC(C)CC(C)C2)c2ccc(C(C)=O)cc2)c(OC)c1` (stereo not drawn) [Compound 100, 3-(4-Acetylphenyl)-1-(3,5-dimethylpiperidin-1-yl)-3-(2-hydroxy-4,6-dimethoxyphenyl)propan-1-one], on RORγt (Table 1), the Emax was found to be 93.6% and the IC50 was below 1 µM.

For `COc1c(C(CC(=O)N2CC(C)CC(C)C2)c2ccc3c(c2)OCO3)c(O)cc2occc12` (stereo not drawn) [Compound 139], at RORγt (Table 1), the Emax turned out to be 94.5% and the IC50 was in the range of 1 to 10 µM.

As to `COc1cc(O)c(C(CC(=O)N2CC(C)CC(C)C2)c2csc3ccccc23)c(OC)c1` (stereo not drawn) [Compound 79], on RORγt (Table 1), the Emax was -90.8% and the IC50 is 1 to 10 µM.

Take `COc1cc(O)c(C(CC(=O)N2C[C@H](C)C[C@H](C)C2)c2ccc(C(=O)O)cc2)c(OC)c1` (stereo partly drawn) [Compound 202, 4-(3-(3,5-cis-Dimethylpiperidin-1-yl)-1-(2-hydroxy-4,6-dimethoxyphenyl)-3-oxopropyl)benzoic acid]: on RORγt (Table 1A), the IC50 is below 1 µM.

As to `CC1CC(C)CN(C(=O)CC(c2ccc(-n3cncn3)cc2)c2ccc3c(c2)OCO3)C1` (stereo not drawn) [Compound 141, 3-(4-(1H-1,2,4-Triazol-1-yl)phenyl)-3-(benzo[d][1,3]dioxol-5-yl)-1-(3,5-dimethylpiperidin-1-yl)propan-1-one], in data set [1], the “% Remaining @ 60 min” value turned out to be 9.02%, the half-life at 1 μM is 12.9 min and the microsomal CLint at 1 μM was found to be 108 µL/min/mg. Besides, the “stability compared with compounds 150 and 157” value in data set [1] (HLM, Table 3 data) is “better or improved stability over the compounds with IDs 150 and 157”.

Consider `COc1cc(O)c(C(CC(=O)N2CC(C)CC(C)C2)c2ccncc2)c(OC)c1` (stereo not drawn) [Compound 108, 1-(3,5-Dimethylpiperidin-1-yl)-3-(2-hydroxy-4,6-dimethoxyphenyl)-3-(pyridin-4-yl)propan-1-one], for which, on RORγt (Table 1), the Emax turned out to be 119% and the IC50 is 11 to 50 µM.

Regarding `COc1cc(O)c(C(CC(=O)N2CC(C)CC(C)C2)c2ccc(C(N)=O)cc2)c(OC)c1` (stereo not drawn) [Compound 111], on RORγt (Table 1), the Emax came to 96.7% and the IC50 is 1 to 10 µM.

`COc1cc(O)c(C(CC(=O)N2C[C@H](C)C[C@H](C)C2)c2c[nH]c(C)n2)c(OC)c1` (stereo partly drawn) [Compound 203]: on RORγt (Table 1A), the IC50 was 1 to 10 µM.

With `COc1cc(O)c(C(CC(=O)N2CCCC(C)C2)c2cccs2)c(OC)c1` (stereo not drawn) [Compound 70], at RORγt (Table 1), the Emax was 95% and the IC50 fell in the range of 1 to 10 µM.

Regarding `COc1cc(O)c(C(CC(=O)N2CC(C)CC(C)C2)c2cccnc2)c(OC)c1` (stereo not drawn) [Compound 106, 1-(3,5-Dimethylpiperidin-1-yl)-3-(2-hydroxy-4,6-dimethoxyphenyl)-3-(pyridin-3-yl)propan-1-one], at RORγt (Table 1), the Emax stood at 96.9% and the IC50 lay in the range of 1 to 10 µM.

For `COc1ccc2ccccc2c1C(c1ccc(F)cc1)C(C)(C)C(=O)N1CC(C)CC(C)C1` (stereo not drawn) [Compound 157, reference compound], in data set [1], the “% Remaining @ 60 min” value was determined as 6.78%, the half-life at 1 μM came to 6.9 min and the microsomal CLint at 1 μM was 201 µL/min/mg.

Turning to `COc1cc(O)c(C(CC(=O)N2CC(C)CC(C)C2)c2ccc(S(=O)(=O)N(C)C)cc2)c(OC)c1` (stereo not drawn) [Compound 84], at RORγt (Table 1), the Emax stood at 103% and the half-maximal inhibitory concentration (IC50) was 11 to 50 µM.

As for `COc1cc(OC)c(C(c2ccccc2)C(C)(C)C(=O)N2CC(C)OC(C)C2)c(OC)c1` (stereo not drawn) [Compound 150, reference compound], in data set [1], the “% Remaining @ 60 min” value turned out to be 6.79%, the half-life at 1 μM turned out to be 8 min and the microsomal CLint at 1 μM is 173 µL/min/mg.

Regarding `COc1cc(O)c(C(CC(=O)N2CC(C)C[C@@H](C)C2)c2nc3ccccc3s2)c(OC)c1` (stereo in doubt) [Compound 205, 1-(3,5-Dimethylpiperidin-1-yl)-3-(4,6-dimethoxy-2-hydroxy-phenyl)-3-(benzothiazol-2-yl)propan-1-one], the IC50 on RORγt (Table 1A) was below 1 µM.
